ChEMBL document CHEMBL1201862, “PubChem BioAssay data set” (2004)
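Interpolation was linear, between the two tested concentrations surrounding the appropriate level; five concentrations were tested over 48 hours in 96-well plates. GI50 = concentration required for 50% inhibition of growth.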 The source made the active and inactive calls. Cut-off read from the data, not from the text of the source: active = GI50 up to about 1.1 µM and inactive = higher.

Columns and labels:
Assay in all cases: NCI-60 cell line screen, 48 h
786-0 = system: 786-0
A549 = system: A549
ACHN = system: ACHN
BT-549 = system: BT-549
CCRF-CEM = system: CCRF-CEM
COLO 205 = system: COLO 205
DU-145 = system: DU-145
EKVX = system: EKVX
HCC 2998 = system: HCC 2998
HCT-116 = system: HCT-116
HCT-15 = system: HCT-15
HL-60 = system: HL-60
HOP-62 = system: HOP-62
HT-29 = system: HT-29
Hs-578T = system: Hs-578T
IGROV-1 = system: IGROV-1
K562 = system: K562
KM12 = system: KM12
LOX IMVI = system: LOX IMVI
M14 = system: M14
MCF7 = system: MCF7
MDA-MB-231 = system: MDA-MB-231
MDA-MB-435 = system: MDA-MB-435
MDA-N = system: MDA-N
MOLT-4 = system: MOLT-4
Malme-3M = system: Malme-3M
NCI-H23 = system: NCI-H23
NCI-H460 = system: NCI-H460
NCI-H522 = system: NCI-H522
NCI/ADR-RES = system: NCI/ADR-RES
OVCAR-3 = system: OVCAR-3
OVCAR-5 = system: OVCAR-5
OVCAR-8 = system: OVCAR-8
PC-3 = system: PC-3
RPMI-8226 = system: RPMI-8226
RXF 393 = system: RXF 393
SF-268 = system: SF-268
SF-295 = system: SF-295
SF-539 = system: SF-539
SK-MEL-28 = system: SK-MEL-28
SK-MEL-2 = system: SK-MEL-2
SK-MEL-5 = system: SK-MEL-5
SN12C = system: SN12C
SNB-19 = system: SNB-19
SNB-75 = system: SNB-75
SR = system: SR
SW-620 = system: SW-620
TK-10 = system: TK-10
U-251 = system: U-251
UACC-257 = system: UACC-257
UACC-62 = system: UACC-62
UO-31 = system: UO-31
A498 = system: A498
CAKI-1 = system: CAKI-1
HOP-92 = system: HOP-92
NCI-H226 = system: NCI-H226
OVCAR-4 = system: OVCAR-4
SK-OV-3 = system: SK-OV-3
T47D = system: T47D

SMILES: C=CCCC(CCC=C)(C(=O)O)C(=O)O
- GI50 (786-0): > 100 µM (inactive)
- GI50 (A549): > 100 µM (inactive)
- GI50 (ACHN): > 100 µM (inactive)
- GI50 (BT-549): > 100 µM (inactive)
- GI50 (CCRF-CEM): > 100 µM (inactive)
- GI50 (COLO 205): > 100 µM (inactive)
- GI50 (DU-145): > 100 µM (inactive)
- GI50 (EKVX): > 100 µM (inactive)
- GI50 (HCC 2998): > 100 µM (inactive)
- GI50 (HCT-116): > 100 µM (inactive)
- GI50 (HCT-15): > 100 µM
- GI50 (HL-60): > 100 µM (inactive)
- GI50 (HOP-62): > 100 µM (inactive)
- GI50 (HT-29): > 100 µM (inactive)
- GI50 (Hs-578T): > 100 µM (inactive)
- GI50 (IGROV-1): > 100 µM (inactive)
- GI50 (K562): > 100 µM (inactive)
- GI50 (KM12): > 100 µM (inactive)
- GI50 (LOX IMVI): > 100 µM (inactive)
- GI50 (M14): > 100 µM (inactive)
- GI50 (MCF7): > 100 µM (inactive)
- GI50 (MDA-MB-231): > 100 µM (inactive)
- GI50 (MDA-MB-435): > 100 µM (inactive)
- GI50 (MDA-N): > 100 µM (inactive)
- GI50 (MOLT-4): > 100 µM (inactive)
- GI50 (Malme-3M): > 100 µM (inactive)
- GI50 (NCI-H23): > 100 µM (inactive)
- GI50 (NCI-H460): > 100 µM (inactive)
- GI50 (NCI-H522): > 100 µM (inactive)
- GI50 (NCI/ADR-RES): > 100 µM (inactive)
- GI50 (OVCAR-3): > 100 µM (inactive)
- GI50 (OVCAR-5): > 100 µM (inactive)
- GI50 (OVCAR-8): > 100 µM (inactive)
- GI50 (PC-3): > 100 µM (inactive)
- GI50 (RPMI-8226): > 100 µM (inactive)
- GI50 (RXF 393): > 100 µM (inactive)
- GI50 (SF-268): > 100 µM (inactive)
- GI50 (SF-295): > 100 µM (inactive)
- GI50 (SF-539): > 100 µM (inactive)
- GI50 (SK-MEL-28): > 100 µM (inactive)
- GI50 (SK-MEL-2): > 100 µM (inactive)
- GI50 (SK-MEL-5): > 100 µM (inactive)
- GI50 (SN12C): > 100 µM (inactive)
- GI50 (SNB-19): > 100 µM (inactive)
- GI50 (SNB-75): > 100 µM (inactive)
- GI50 (SR): > 100 µM (inactive)
- GI50 (SW-620): > 100 µM (inactive)
- GI50 (TK-10): > 100 µM (inactive)
- GI50 (U-251): > 100 µM (inactive)
- GI50 (UACC-257): > 100 µM (inactive)
- GI50 (UACC-62): > 100 µM (inactive)
- GI50 (UO-31): > 100 µM (inactive)

SMILES: C[C@@H]1[C@H](O)CC2=C(CC[C@@H](O)C2(C)C)[C@@]1(CO)CCc1ccoc1
- GI50 (786-0): > 50 µM (inactive)
- GI50 (A498): > 50 µM (inactive)
- GI50 (A549): > 50 µM (inactive)
- GI50 (ACHN): > 50 µM (inactive)
- GI50 (BT-549): > 50 µM (inactive)
- GI50 (CAKI-1): > 50 µM (inactive)
- GI50 (CCRF-CEM): 29.4 µM (inactive)
- GI50 (COLO 205): > 50 µM (inactive)
- GI50 (EKVX): > 50 µM (inactive)
- GI50 (HCC 2998): > 50 µM (inactive)
- GI50 (HCT-116): > 50 µM (inactive)
- GI50 (HCT-15): > 50 µM
- GI50 (HL-60): 15.8 µM (inactive)
- GI50 (HOP-62): > 50 µM (inactive)
- GI50 (HOP-92): > 50 µM (inactive)
- GI50 (HT-29): > 50 µM (inactive)
- GI50 (Hs-578T): > 50 µM (inactive)
- GI50 (IGROV-1): > 50 µM (inactive)
- GI50 (K562): > 50 µM (inactive)
- GI50 (KM12): > 50 µM (inactive)
- GI50 (LOX IMVI): > 50 µM (inactive)
- GI50 (M14): > 50 µM (inactive)
- GI50 (MCF7): > 50 µM (inactive)
- GI50 (MDA-MB-231): > 50 µM (inactive)
- GI50 (MDA-N): > 50 µM (inactive)
- GI50 (MOLT-4): 34.7 µM (inactive)
- GI50 (Malme-3M): > 50 µM (inactive)
- GI50 (NCI-H226): > 50 µM (inactive)
- GI50 (NCI-H23): > 50 µM (inactive)
- GI50 (NCI-H460): > 50 µM (inactive)
- GI50 (NCI/ADR-RES): > 50 µM (inactive)
- GI50 (OVCAR-3): > 50 µM (inactive)
- GI50 (OVCAR-4): > 50 µM (inactive)
- GI50 (OVCAR-5): > 50 µM (inactive)
- GI50 (OVCAR-8): > 50 µM (inactive)
- GI50 (PC-3): 46.3 µM (inactive)
- GI50 (RXF 393): > 50 µM (inactive)
- GI50 (SF-295): > 50 µM (inactive)
- GI50 (SF-539): > 50 µM (inactive)
- GI50 (SK-MEL-28): > 50 µM (inactive)
- GI50 (SK-MEL-2): > 50 µM (inactive)
- GI50 (SK-MEL-5): > 50 µM (inactive)
- GI50 (SK-OV-3): > 50 µM (inactive)
- GI50 (SN12C): > 50 µM (inactive)
- GI50 (SNB-19): > 50 µM (inactive)
- GI50 (SNB-75): 31.8 µM (inactive)
- GI50 (SR): 25.1 µM (inactive)
- GI50 (SW-620): > 50 µM (inactive)
- GI50 (TK-10): > 50 µM (inactive)
- GI50 (U-251): > 50 µM (inactive)
- GI50 (UACC-257): > 50 µM (inactive)
- GI50 (UACC-62): > 50 µM (inactive)
- GI50 (UO-31): > 50 µM (inactive)

SMILES: O=c1[nH]c2cc(F)c(F)cc2nc1Cc1ccccc1
- GI50 (786-0): > 100 µM (inactive)
- GI50 (A498): > 100 µM (inactive)
- GI50 (ACHN): > 100 µM (inactive)
- GI50 (BT-549): > 100 µM (inactive)
- GI50 (CAKI-1): > 100 µM (inactive)
- GI50 (CCRF-CEM): > 100 µM (inactive)
- GI50 (COLO 205): > 100 µM (inactive)
- GI50 (DU-145): > 100 µM (inactive)
- GI50 (EKVX): > 100 µM (inactive)
- GI50 (HCC 2998): > 100 µM (inactive)
- GI50 (HCT-116): > 100 µM (inactive)
- GI50 (HCT-15): > 100 µM
- GI50 (HL-60): > 100 µM (inactive)
- GI50 (HOP-62): > 100 µM (inactive)
- GI50 (HOP-92): > 100 µM (inactive)
- GI50 (HT-29): > 100 µM (inactive)
- GI50 (Hs-578T): > 100 µM (inactive)
- GI50 (IGROV-1): > 100 µM (inactive)
- GI50 (K562): 30 µM (inactive)
- GI50 (KM12): > 100 µM (inactive)
- GI50 (LOX IMVI): > 100 µM (inactive)
- GI50 (M14): > 100 µM (inactive)
- GI50 (MCF7): > 100 µM (inactive)
- GI50 (MDA-MB-231): > 100 µM (inactive)
- GI50 (MDA-MB-435): > 100 µM (inactive)
- GI50 (MOLT-4): 16.1 µM (inactive)
- GI50 (NCI-H226): > 100 µM (inactive)
- GI50 (NCI-H23): > 100 µM (inactive)
- GI50 (NCI-H460): > 100 µM (inactive)
- GI50 (NCI/ADR-RES): > 100 µM (inactive)
- GI50 (OVCAR-4): > 100 µM (inactive)
- GI50 (OVCAR-8): > 100 µM (inactive)
- GI50 (PC-3): > 100 µM (inactive)
- GI50 (RXF 393): > 100 µM (inactive)
- GI50 (SF-268): > 100 µM (inactive)
- GI50 (SF-295): > 100 µM (inactive)
- GI50 (SF-539): > 100 µM (inactive)
- GI50 (SK-MEL-28): > 100 µM (inactive)
- GI50 (SK-MEL-2): > 100 µM (inactive)
- GI50 (SK-MEL-5): > 100 µM (inactive)
- GI50 (SK-OV-3): > 100 µM (inactive)
- GI50 (SNB-19): > 100 µM (inactive)
- GI50 (SNB-75): > 100 µM (inactive)
- GI50 (SR): > 100 µM (inactive)
- GI50 (SW-620): > 100 µM (inactive)
- GI50 (T47D): > 100 µM (inactive)
- GI50 (TK-10): > 100 µM (inactive)
- GI50 (U-251): > 100 µM (inactive)
- GI50 (UACC-257): > 100 µM (inactive)
- GI50 (UACC-62): > 100 µM (inactive)
- GI50 (UO-31): > 100 µM (inactive)
